Test results taken from patent US10272110B2, “Methods for promoting HSC engraftment” (CHILDREN'S MEDICAL CENTER CORPORATION, priority 2006, dated 2019).

Legend:
[1] = test system: CFU-S from murine bone marrow cells; experiment: Murine colony-forming units-spleen (CFU-S); type: in vivo, mouse
Procedure: Two independent BM samples were treated (n=5/treatment×2 replicates) for each variable. Recipient mice were lethally irradiated with a split dose of 10 Gy. 6×10^4 unfractionated dmPGE2 or control-treated BM cells were injected retro-orbitally into irradiated recipient mice. Spleens were dissected on day eight or twelve, weighed and fixed with Bouin's solution; hematopoietic colonies per spleen were counted. 1×10^5 cells/recipient were transplanted after treatment with the cox inhibitors. FACS sorted ckit^+sca1^+lineage^− BM cells were treated as above and transplanted at a dose of either 100 cells/recipient or 300 cells/recipient.

[2] = test system: runx1/cmyb+ AGM HSCs; details: 10 μM
Procedure: A chemical genetic screen was conducted to identify novel pathways that modulate definitive HSC formation during zebrafish embryogenesis. FIG. 1. Genes such as runx1 and cmyb, required for HSC development during mammalian hematopoiesis, are expressed in the ventral wall of the dorsal aorta in a region analogous to the mammalian AGM at thirty-six hours post-fertilization (hpf). […] Wild-type embryos were incubated with individual compounds from the three-somite stage until thirty-six hpf. Probes for runx1 and cmyb were combined and utilized to detect HSCs by in situ hybridization.
Wild-type age-matched embryos were arrayed into 48-well plates (˜5 embryos/well) of individual test compounds and exposed from 3-somites until 36 hpf. […] In situ hybridization for runx1 and cmyb was performed to assess HSCs. Compounds were retested at 10 μM, 20 μM, and 50 μM. Stem cell specificity was assessed using flk1 at 36 hpf. PGE2, PGI2, dmPGE2 and all cox inhibitors (Sigma) were used at 10 μM to 20 μM.
Qualitative scoring (# embryos with altered HSCs/# scored) of runx1/cmyb was conducted using the following criteria: Normal/unchanged=continuous line of runx1/cmyb+ endothelial cells and occasional hematopoietic clusters. Decreased/absent=reduction in runx1/cmyb+ cells, including the presence of large gaps in the line of HSCs, isolated positive cells, or absence of expression. Increased/excess=enhancement in runx1/cmyb^+ cells, including many HSC clusters, a thickened line of HSCs, or ectopic expression.

[3] = test system: peripheral blood and bone marrow WBC; experiment: 5-Fluorouracil bone marrow injury; type: in vivo, mouse
Procedure: Mice were treated with 5-FU (150 mg/kg) as described. Venezia et al., 2004. […] Peripheral blood was obtained on day seven and day fourteen, quantified and subjected to multilineage FACS analysis using antibodies (eBioscience) to B220/IgM (B-lymphoid), CD4/8 (T-lymphoid), Mac1/Gr1 (myeloid), Ter119/CD71 (erythroid) and ckit/sca1 (stem/progenitor). Mice were sacrificed on day 16, and bone marrow was isolated, quantified and analyzed by FACS.

[4] = test system: repopulating HSCs; experiment: Limiting dilution competitive transplantation; type: in vivo, mouse
Text: Zhang & Lodish, 103 Blood 2513-21 (2004). WBM (CD45.1) exposed to dmPGE2 ex vivo was mixed independently at varying doses with a fixed number of untreated competitor cells (CD45.1/CD45.2) and injected into congenic recipient mice (CD45.2). Peripheral blood was obtained at six, twelve, and twenty-four weeks post-transplantation and examined by FACS to determine the contribution of treated-test cells to hematopoietic repopulation (FIGS. 9E-9J). Positive reconstitution was defined as test cell multilineage chimerism >5% (FIGS. 9F, H, I). […] At six weeks, the calculated frequency of engrafting cells per 10^6 WBM cells was enhanced 3.3-fold (p=0.005) in the recipients of dmPGE2-treated WBM, and the frequency of short-term repopulating HSCs was 4-fold (p=0.002) higher at twelve weeks post-transplant (FIG. 8E, 8F, FIG. 9G). At twenty-four weeks, the frequency of long-term repopulating HSCs was 2.3-fold enhanced (p=0.05) in recipients of dmPGE2-treated cells (FIG. 8F, FIG. 9J). […] No decline in the contribution of dmPGE2-treated HSCs to hematopoiesis was observed.
WBM from CD45.1 C57Bl/6 mice was incubated with dmPGE2 or EtOH control ex vivo as described. Treated-test cells were independently transplanted into irradiated CD45.2 recipients (n=5/variable×2) with untreated CD45.1/CD45.2 competitor at the following ratios: 15,000:200,000 (0.075:1), 50,000:200,000 (0.25:1), 200,000:200,000 (1:1), 2,000,000:200,000 (10:1). Peripheral blood (PB) was obtained at six, twelve, and twenty-four weeks post-transplantation, and white blood cells were FACS-analyzed to determine test reconstitution for each series of treatment populations. Frequency of PB chimerism >5% was used to calculate the number of repopulating cells using the L-Calc program (Stem Cell Technologies). For twelve-week and twenty-four-week PB samples, multilineage reconstitution was measured by FACS analysis as above.

[5] = test system: WBM cells; experiment: Homing of CDFA-labeled WBM to the BM niche; type: in vivo, mouse; details: twelve hours post-transplantation, p=0.83

CCCCC(C)(C)[C@H](O)/C=C/[C@H]1[C@H](O)CC(=O)[C@@H]1C/C=C\CCCC(=O)O [dmPGE2, 16,16-dimethyl-PGE2]
splenic weight and CFU-S12 in recipients of treated KSL cells ([1]; KSL BM cells, 100 or 300 cells per recipient): significantly increased | CFU-S12 Colony Number ([1]; Kit+Sca+Lin−, 100 cells transplanted, EtOH 3.0 (1.4)): 6.2 (1.2) | CFU-S12 Colony Number ([1]; Kit+Sca+Lin−, 300 cells transplanted, EtOH 5.0 (1.1)): 11.0 (1.7) | CFU-S8 colonies ([1]; WBM ex vivo 1 μM/10^6 cells): enhanced | number of CFU-S12, increase ([1]; WBM ex vivo 1 μM/10^6 cells, 6×10^4 cells transplanted): three-fold | CFU-S12 Colony Number ([1]; Whole Marrow, 6000 cells transplanted, 1 μM/10^6 cells ex vivo, day twelve, EtOH 5.8 (2.6)): 15.2 (2.2) | embryos with increase in runx1/cmyb+ AGM HSCs [2]: 78% | increased runx1/cmyb+ HSCs (# embryos altered/# scored) ([2]; 36 hpf): 97/124 | BM recovery following 5FU treatment ([3]; administration after 5FU): significantly enhanced BM recovery | peripheral blood (day 14) and bone marrow (day 16) WBC counts after 5-FU injury ([3]; in vivo exposure, IP, 1 mg/kg): enhanced WBC counts | Mean % CD45.1 chimerism (±SD) ([4]; 6 wk, test cell dose 15000, competitor 200000): 16.9 ± 19.5% | Animals with >5% CD45.1 ([4]; 6 wk, test cell dose 15000, competitor 200000, 10 analyzed): 7 | Mean % CD45.1 chimerism (±SD) ([4]; 6 wk, test cell dose 50000, competitor 200000): 22.7 ± 24.2% | Animals with >5% CD45.1 ([4]; 6 wk, test cell dose 50000, competitor 200000, 10 analyzed): 8 | Mean % CD45.1 chimerism (±SD) ([4]; 6 wk, test cell dose 200000, competitor 200000): 41.9 ± 17.2% | Animals with >5% CD45.1 ([4]; 6 wk, test cell dose 200000, competitor 200000, 10 analyzed): 10 | Mean % CD45.1 chimerism (±SD) ([4]; 6 wk, test cell dose 2000000, competitor 200000): 85.1 ± 3.1% | Animals with >5% CD45.1 ([4]; 6 wk, test cell dose 2000000, competitor 200000, 10 analyzed): 10 | Mean % CD45.1 chimerism (±SD) ([4]; 12 wk, test cell dose 15000, competitor 200000): 15.1 ± 22.2% | Animals with >5% CD45.1 ([4]; 12 wk, test cell dose 15000, competitor 200000, 10 analyzed): 5 | Mean % CD45.1 chimerism (±SD) ([4]; 12 wk, test cell dose 50000, competitor 200000): 18.1 ± 22.2% | Animals with >5% CD45.1 ([4]; 12 wk, test cell dose 50000, competitor 200000, 10 analyzed): 8 | Mean % CD45.1 chimerism (±SD) ([4]; 12 wk, test cell dose 200000, competitor 200000): 40.8 ± 28.7% | Animals with >5% CD45.1 ([4]; 12 wk, test cell dose 200000, competitor 200000, 10 analyzed): 10 | Mean % CD45.1 chimerism (±SD) ([4]; 12 wk, test cell dose 2000000, competitor 200000): 87.8 ± 4.0% | Animals with >5% CD45.1 ([4]; 12 wk, test cell dose 2000000, competitor 200000, 10 analyzed): 10 | Mean % CD45.1 chimerism (±SD) ([4]; 24 wk, test cell dose 15000, competitor 200000): 10.2 ± 10.3% | Animals with >5% CD45.1 ([4]; 24 wk, test cell dose 15000, competitor 200000, 9 analyzed): 4 | Mean % CD45.1 chimerism (±SD) ([4]; 24 wk, test cell dose 50000, competitor 200000): 14.3 ± 16.6% | Animals with >5% CD45.1 ([4]; 24 wk, test cell dose 50000, competitor 200000, 10 analyzed): 7 | Mean % CD45.1 chimerism (±SD) ([4]; 24 wk, test cell dose 200000, competitor 200000): 39.1 ± 31.0% | Animals with >5% CD45.1 ([4]; 24 wk, test cell dose 200000, competitor 200000, 10 analyzed): 10 | Mean % CD45.1 chimerism (±SD) ([4]; 24 wk, test cell dose 2000000, competitor 200000): 90.7 ± 4.0% | Animals with >5% CD45.1 ([4]; 24 wk, test cell dose 2000000, competitor 200000, 10 analyzed): 10 | calculated frequency of engrafting cells per 10^6 WBM cells, enhancement vs control ([4]; six weeks post-transplant, Poisson statistics): 3.3 fold | frequency of short-term repopulating HSCs, higher vs control ([4]; twelve weeks post-transplant, Poisson statistics): 4 fold | lineage character of reconstitution in recipients ([4]; twelve- and twenty-four-week analyses): multilineage | frequency of long-term repopulating HSCs, enhancement vs control ([4]; twenty-four weeks post-transplant, Poisson statistics): 2.3 fold | contribution of treated HSCs to hematopoiesis over time ([4]; up to twenty-four weeks): No decline | homing to the BM niche vs control [5]: no significant difference
